Experimental findings from PMC10914727 (Nature Communications, 2024) are described below.

Assay [1] has as its target T1, endogenous cannabinoid CB1 receptor in CGNs (Mus musculus, UniProt P47746).
T1 construct: gene Cnr1; native receptor, primary cerebellar granule neurons
The assay is described as follows: cell-based. Also on record: species or system mouse primary cerebellar granule neurons (CGNs).

Assay [2] has as its target T2, cannabinoid CB1 receptor (Mus musculus, UniProt P47746).
T2 construct: gene Cnr1; mouse CB1 cDNA expressed in HEK293 cells
The assay is described as follows: cell-based. Also on record: species or system HEK293. From the text: The raw data and p-values are available in source data provided as a Source Data file.

Assay [3] has as its target T3, endogenous GABAB receptor in CGNs (Mus musculus, UniProt Q9WV18).
T3 construct: gene Gabbr1; native receptor, primary cerebellar granule neurons
The assay is described as follows: cell-based. Also noted: species or system primary cerebellar granule neurons (CGNs); BRET G protein sensor (Galpha-Nluc / Venus-Ggamma2), agonist-induced change of BRET. From the text:
(§1) Dotted line is the correlation of pEC50 determined with HEK293 cells. […] Data are mean ± SEM from at least three biologically independent experiments each performed in triplicate and analysed using one-way ANOVA with a Dunnett’s post-hoc multiple comparison test to determine significance. […] Sequence of the linker (L) before and after Nluc was indicated. […] The raw data and p-values are available in source data provided as a Source Data file.

The target in assay [4] is T4, GABAB receptor (GB1 subunit) (Rattus norvegicus, UniProt Q9Z0U4).
T4 construct: gene Gabbr1; HA-tagged rat GB1 with Flag-tagged rat GB2 expressed in HEK293 cells; with GABAB2 (GB2)
The assay is described as follows: cell-based. Also on record: species or system HEK293; BRET G protein sensor (Galpha-Nluc / Venus-Ggamma2), agonist-induced change of BRET.
Source text: as §1

Assay [5] has as its target T1, endogenous cannabinoid CB1 receptor in CGNs. Also on record: species or system mouse primary cerebellar granule neurons (CGNs). Particulars: agonist.
Assay [6] has as its target T2, cannabinoid CB1 receptor. The assay is described as follows: cell-based. Also noted: BRET between Galpha-Nluc and Venus-Ggamma2, agonist-induced Gi1 or GoA response of transfected mouse CB1. Particulars: read-out: Emax ± SEM (n) / Bay 59-3074. Here is the method:
Fig. 6 Difference of Gi1 and GoA responses by cannabinoid receptor CB1 agonists. a Detection of CB1 receptor in cell membranes of CGNs, mock-transfected HEK293 cells and HEK293 cells transfected with mouse CB1 cDNA (80 ng/well in 96-well plate), by western blotting. Values are mean ± SEM normalized as fold of CB1 expression in CGNs from three independent experiments. b Percentage of change in BRET ratio between Gα^Nluc and ^VenusGγ2 induced by [compound left out] in HEK293 cells (CB1 cDNA; 80 ng/well per 96-well plate) or CGNs for the indicated Gαi1, Gαi2, Gαi3, GαoA, GαoB or Gαz sensors (amounts of cDNA as in Fig. 2a). […] Data are analysed using unpaired t-test (two-tailed) to determine significance. ****p < 0.0001, *p < 0.05 and not significant (ns). c, d Change of BRET signal between Gα^Nluc and ^VenusGγ2 induced by the indicated CB1 receptor agonists in HEK293 cells and CGNs measured by Gi1 and GoA sensors. […] Inset, correlation of the agonist potencies (pEC50) between HEK293 cells and CGNs determined by the G protein sensors. Dotted lines are the correlation of pEC50 determined with HEK293 cells. […] Values are mean ± SEM normalized as fold of […] expression in CGNs from four independent experiments. c Expression of the Nluc-tagged Gα transfected in CGNs or in HEK293 cells in (a), measured by the luminescent signal at 480 nm. […]

Assay [7] has as its target T3, endogenous GABAB receptor in CGNs. The assay is described as follows: cell-based. Also noted: species or system primary cerebellar granule neurons (CGNs). Particulars: with 20 uM baclofen. From the text:
We have further validated these G protein sensors by measuring the potency of different orthosteric GABAB receptor ligands (Fig. 3a) in both CGNs and HEK293 cells. […] Similar results were obtained in the hippocampal neurons and cortical neurons (Supplementary Fig. 4b–d and Supplementary Table 1). […] Dotted line is the correlation of pEC50 determined with HEK293 cells. […] Data are mean ± SEM from at least three biologically independent experiments each performed in triplicate and analysed using one-way ANOVA with a Dunnett’s post-hoc multiple comparison test to determine significance. […] The raw data and p-values are available in source data provided as a Source Data file. Fig. 1 Design and validation of the Gi/o protein sensors in neurons. a Scheme of the BRET-based sensors to detect the activity of the endogenous GPCR in neurons. b Scheme of the Gαi/o^Nluc and ^VenusGγ2 constructs co-transfected in the neurons. Sequence of the linker (L) before and after Nluc was indicated. […] The data are representative of BRET ratios from five independent experiments. e Representative fluorescent images of Venus and DAPI in CGNs transfected with GαoA^Nluc and ^VenusGγ2 or in HEK293 cells transfected with GαoA^Nluc, Gβ1 and ^VenusGγ2 from three independent experiments. […] The data are representative of the mean ± SEM of BRET ratios from three independent experiments. […]

For assay [8], the target named is T5, endogenous GABAB receptor in cortical neurons (Mus musculus, UniProt Q9WV18).
T5 construct: gene Gabbr1; native receptor, primary cortical neurons
The assay is described as follows: cell-based. Also on record: species or system primary cortical neurons. Particulars: read-out: pEC50 cortical neurons (converted). From the text:
(§2) Sequence of the linker (L) before and after Nluc was indicated. […] The raw data and p-values are available in source data provided as a Source Data file.

In assay [9] the target is T6, endogenous GABAB receptor in hippocampal neurons (Mus musculus, UniProt Q9WV18).
T6 construct: gene Gabbr1; native receptor, primary hippocampal neurons
The assay is described as follows: cell-based. Also on record: species or system primary hippocampal neurons; BRET G protein sensor (Galpha-Nluc / Venus-Ggamma2), agonist-induced change of BRET. The following applies: read-out: pEC50 hippocampal neurons (converted).
Source text: as §2

Several values for one entry are separate records, joined by “and”; a condition that tells them apart may be missing. Equal values may be shown once. Read-outs that look alike come from different tables or passages of the source.

T1 sequence (P47746 whole entry): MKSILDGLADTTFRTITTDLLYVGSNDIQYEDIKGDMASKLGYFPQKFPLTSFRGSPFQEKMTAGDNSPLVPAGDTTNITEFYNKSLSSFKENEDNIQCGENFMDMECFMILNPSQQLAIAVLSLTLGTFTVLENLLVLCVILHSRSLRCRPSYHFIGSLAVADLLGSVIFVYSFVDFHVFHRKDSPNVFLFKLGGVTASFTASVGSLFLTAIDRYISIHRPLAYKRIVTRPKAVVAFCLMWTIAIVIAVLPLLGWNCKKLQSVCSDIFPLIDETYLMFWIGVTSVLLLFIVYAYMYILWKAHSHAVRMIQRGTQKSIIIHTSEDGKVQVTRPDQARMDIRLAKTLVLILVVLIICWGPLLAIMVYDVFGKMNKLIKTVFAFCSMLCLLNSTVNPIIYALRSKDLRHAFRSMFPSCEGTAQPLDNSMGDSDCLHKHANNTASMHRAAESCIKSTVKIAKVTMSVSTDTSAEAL
T2 sequence (P47746 whole entry): as above
T3 sequence (Q9WV18 whole entry): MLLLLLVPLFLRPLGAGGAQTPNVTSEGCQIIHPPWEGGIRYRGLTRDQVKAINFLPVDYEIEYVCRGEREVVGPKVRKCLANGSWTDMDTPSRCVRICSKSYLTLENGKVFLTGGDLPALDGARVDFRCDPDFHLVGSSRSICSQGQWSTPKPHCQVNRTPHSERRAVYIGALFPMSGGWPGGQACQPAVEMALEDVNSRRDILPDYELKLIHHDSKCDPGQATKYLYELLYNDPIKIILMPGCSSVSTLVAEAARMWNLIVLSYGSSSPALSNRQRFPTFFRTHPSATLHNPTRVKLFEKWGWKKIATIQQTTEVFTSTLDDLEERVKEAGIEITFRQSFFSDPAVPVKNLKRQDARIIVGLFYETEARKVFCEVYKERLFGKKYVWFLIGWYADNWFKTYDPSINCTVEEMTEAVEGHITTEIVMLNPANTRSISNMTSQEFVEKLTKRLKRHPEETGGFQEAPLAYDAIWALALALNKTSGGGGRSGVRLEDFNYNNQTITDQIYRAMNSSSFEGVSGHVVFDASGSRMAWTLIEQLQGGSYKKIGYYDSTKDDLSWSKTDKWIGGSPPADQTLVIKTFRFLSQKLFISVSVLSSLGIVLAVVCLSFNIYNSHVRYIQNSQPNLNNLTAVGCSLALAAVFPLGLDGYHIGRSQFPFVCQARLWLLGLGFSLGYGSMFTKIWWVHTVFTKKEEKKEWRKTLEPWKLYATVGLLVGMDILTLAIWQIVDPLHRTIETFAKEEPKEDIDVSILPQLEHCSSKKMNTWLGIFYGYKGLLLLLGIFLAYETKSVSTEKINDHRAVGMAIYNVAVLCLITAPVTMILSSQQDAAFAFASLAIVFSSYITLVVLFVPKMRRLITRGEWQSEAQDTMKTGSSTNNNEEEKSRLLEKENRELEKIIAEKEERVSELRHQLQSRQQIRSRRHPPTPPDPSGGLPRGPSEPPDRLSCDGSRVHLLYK
T3 sequence (Q80T41 whole entry partner): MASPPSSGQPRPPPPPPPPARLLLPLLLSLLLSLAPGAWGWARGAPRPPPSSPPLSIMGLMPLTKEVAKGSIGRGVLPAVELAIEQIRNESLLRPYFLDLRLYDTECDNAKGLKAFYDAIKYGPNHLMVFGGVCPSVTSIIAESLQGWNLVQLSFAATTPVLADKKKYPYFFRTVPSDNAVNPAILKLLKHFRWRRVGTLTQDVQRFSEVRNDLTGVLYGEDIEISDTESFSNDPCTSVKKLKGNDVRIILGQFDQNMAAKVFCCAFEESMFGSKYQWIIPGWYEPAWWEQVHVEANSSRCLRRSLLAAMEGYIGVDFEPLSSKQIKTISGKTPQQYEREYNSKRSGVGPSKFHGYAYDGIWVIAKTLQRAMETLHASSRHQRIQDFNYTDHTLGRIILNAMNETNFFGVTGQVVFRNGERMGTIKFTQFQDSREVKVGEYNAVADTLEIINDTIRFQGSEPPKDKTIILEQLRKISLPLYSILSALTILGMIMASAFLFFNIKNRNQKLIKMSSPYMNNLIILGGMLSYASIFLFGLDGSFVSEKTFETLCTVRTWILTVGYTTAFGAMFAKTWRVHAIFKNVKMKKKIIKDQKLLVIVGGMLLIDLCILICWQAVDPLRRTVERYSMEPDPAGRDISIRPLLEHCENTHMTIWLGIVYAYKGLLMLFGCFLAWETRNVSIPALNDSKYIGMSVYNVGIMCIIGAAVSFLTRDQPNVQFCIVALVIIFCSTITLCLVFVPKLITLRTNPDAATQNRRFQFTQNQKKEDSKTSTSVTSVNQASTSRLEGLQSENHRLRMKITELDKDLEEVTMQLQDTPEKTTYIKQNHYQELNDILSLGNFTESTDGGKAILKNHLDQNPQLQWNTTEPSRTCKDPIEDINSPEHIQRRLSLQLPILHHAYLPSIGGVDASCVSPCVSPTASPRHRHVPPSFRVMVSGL
T6 sequence (Q9WV18 whole entry): as the sequence (Q9WV18 whole entry) above
T6 sequence (Q80T41 whole entry partner): as the sequence (Q80T41 whole entry partner) above
T5 sequence (Q9WV18 whole entry): as the sequence (Q9WV18 whole entry) above
T5 sequence (Q80T41 whole entry partner): as the sequence (Q80T41 whole entry partner) above
T4 sequence (Q9Z0U4 20-960): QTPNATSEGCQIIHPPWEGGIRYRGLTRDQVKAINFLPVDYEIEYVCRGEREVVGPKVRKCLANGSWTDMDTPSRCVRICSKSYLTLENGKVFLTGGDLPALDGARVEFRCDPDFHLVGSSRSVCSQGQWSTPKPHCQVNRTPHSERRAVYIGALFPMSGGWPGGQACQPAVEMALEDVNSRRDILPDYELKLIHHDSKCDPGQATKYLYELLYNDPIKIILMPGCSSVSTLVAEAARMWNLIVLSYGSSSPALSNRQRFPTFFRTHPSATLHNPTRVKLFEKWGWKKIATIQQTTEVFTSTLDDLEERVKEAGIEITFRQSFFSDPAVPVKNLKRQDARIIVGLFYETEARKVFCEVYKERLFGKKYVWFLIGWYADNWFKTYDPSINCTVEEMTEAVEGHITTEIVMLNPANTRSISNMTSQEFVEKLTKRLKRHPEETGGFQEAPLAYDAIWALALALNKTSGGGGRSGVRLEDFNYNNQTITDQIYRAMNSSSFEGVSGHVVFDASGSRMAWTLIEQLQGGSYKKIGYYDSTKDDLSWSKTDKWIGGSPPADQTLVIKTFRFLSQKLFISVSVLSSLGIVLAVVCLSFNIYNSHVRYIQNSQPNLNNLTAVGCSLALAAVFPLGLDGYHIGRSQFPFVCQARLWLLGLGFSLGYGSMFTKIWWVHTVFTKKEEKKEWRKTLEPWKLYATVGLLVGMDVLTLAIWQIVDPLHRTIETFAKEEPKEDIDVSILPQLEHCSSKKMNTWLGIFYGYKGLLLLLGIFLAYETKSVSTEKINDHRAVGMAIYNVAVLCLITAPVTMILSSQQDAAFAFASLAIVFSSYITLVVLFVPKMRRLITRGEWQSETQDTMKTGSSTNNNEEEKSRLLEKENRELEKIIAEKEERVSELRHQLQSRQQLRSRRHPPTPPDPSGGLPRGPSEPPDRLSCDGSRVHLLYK
T4 sequence (O88871 41-940 partner): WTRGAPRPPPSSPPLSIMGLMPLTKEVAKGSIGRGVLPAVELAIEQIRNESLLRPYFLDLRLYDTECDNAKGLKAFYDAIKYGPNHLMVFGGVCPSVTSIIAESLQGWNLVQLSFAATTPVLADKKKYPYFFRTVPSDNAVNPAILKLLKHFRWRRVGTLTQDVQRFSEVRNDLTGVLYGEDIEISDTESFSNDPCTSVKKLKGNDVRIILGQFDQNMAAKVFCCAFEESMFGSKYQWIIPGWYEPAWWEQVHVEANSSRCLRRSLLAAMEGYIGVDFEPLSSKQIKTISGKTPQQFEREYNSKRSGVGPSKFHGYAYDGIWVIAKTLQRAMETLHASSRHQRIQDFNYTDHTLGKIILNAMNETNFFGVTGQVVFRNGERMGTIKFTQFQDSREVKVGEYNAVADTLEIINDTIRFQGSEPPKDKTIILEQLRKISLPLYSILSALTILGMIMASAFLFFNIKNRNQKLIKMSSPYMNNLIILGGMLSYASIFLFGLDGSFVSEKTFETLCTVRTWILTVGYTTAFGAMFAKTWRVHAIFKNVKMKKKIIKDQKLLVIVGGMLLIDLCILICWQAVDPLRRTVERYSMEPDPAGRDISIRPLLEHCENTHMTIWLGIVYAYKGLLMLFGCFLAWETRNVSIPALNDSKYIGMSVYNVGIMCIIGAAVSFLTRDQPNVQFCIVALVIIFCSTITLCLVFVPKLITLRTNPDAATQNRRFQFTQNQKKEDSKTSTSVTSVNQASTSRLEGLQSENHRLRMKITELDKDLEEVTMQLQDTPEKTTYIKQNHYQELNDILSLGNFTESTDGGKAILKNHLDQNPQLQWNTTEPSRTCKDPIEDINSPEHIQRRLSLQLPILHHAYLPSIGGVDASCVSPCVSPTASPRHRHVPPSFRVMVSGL

Regarding `CCCCCCC(C)(C)c1ccc([C@@H]2C[C@H](O)CC[C@H]2CCCO)c(O)c1` [CP 55940], the EC50 in [1] (pEC50 ± SEM (n) / CP 55940, B=Gi1, G protein BRET sensor (Gi1 or GoA), CGNs) is 6.61 nM; in [1] (pEC50 ± SEM (n) / CP 55940, B=GoA, G protein BRET sensor (Gi1 or GoA), CGNs), 55 nM; at cannabinoid CB1 receptor [2] (pEC50 ± SEM (n) / CP 55940, B=Gi1, G protein BRET sensor (Gi1 or GoA), transfected HEK293), 126 nM; at cannabinoid CB1 receptor [2] (pEC50 ± SEM (n) / CP 55940, B=GoA, G protein BRET sensor (Gi1 or GoA), transfected HEK293), 166 nM.

In the case of `NCCC[PH](=O)O` [APPA], the EC50 in [3] (Gi1 sensor) was 741 nM; in [3] (GoA sensor), 692 nM; in [4] (pEC50 HEK293, Gi1 sensor), 21.4 nM; in assay [4] (pEC50 HEK293, GoA sensor), 17 nM.

On to `N#Cc1c(Oc2cccc(OS(=O)(=O)CCCC(F)(F)F)c2)cccc1C(F)(F)F` [Bay 59-3074], for which the EC50 was 339 nM and 631 nM in assay [1] (pEC50 ± SEM (n) / Bay 59-3074); 708 nM and 1170 nM at cannabinoid CB1 receptor [2] (pEC50 ± SEM (n) / Bay 59-3074). Besides, the “Emax ± SEM (n) / Bay 59-3074” value in assay [5] was 70.7 ± 1.1 (4) and 42.1 ± 3.9 (3). Also, the Emax on cannabinoid CB1 receptor [6] (HEK293, B=Gi1, % of maximum response of reference agonist) was 50.3%; at cannabinoid CB1 receptor [6] (HEK293, B=GoA, % of maximum response of reference agonist) it was 56.3%.

Turning to `C[C@@H](NC[C@H](O)CP(=O)(O)CCCCCNC(=O)CCc1ccc(O)c(I)c1)c1cccc(C(=O)O)c1` [CGP64213], the figures for the half-maximal inhibitory concentration (IC50) in [7] (Gi1 sensor) and in assay [7] (GoA sensor) were 28.2 nM and 25.7 nM, respectively.

As to `NCC(CC(=O)O)c1ccc(Cl)cc1` (stereo not drawn) [baclofen], the EC50 in assay [3] (Gi1 sensor) was 4790 nM; in [3] (GoA sensor), 2690 nM; in [8] (Gi1 sensor) it was 1120 nM; in assay [8] (GoA sensor) it was 1780 nM; in assay [9] (Gi1 sensor), 1020 nM; in assay [9] (GoA sensor) it was 2630 nM.

As to `CP(=O)(O)CCCN` [SKF 97541], the EC50 is 2340 nM in assay [3] (Gi1 sensor); 2040 nM in assay [3] (GoA sensor); 302 nM in assay [8] (Gi1 sensor); 603 nM in assay [8] (GoA sensor); 229 nM in [9] (Gi1 sensor); 692 nM in assay [9] (GoA sensor).

By IC50 is commonly meant the concentration that inhibits the measured activity by half. Read a high IC50 as weaker potency in that assay.
